# In patent publication US5889148A, “Antibiotic peptides” (priority 1995, dated 1999):
# Non-standard residues stand in square brackets, D forms with d. No end group written: not given here. Aib = CC(C)(N)C(=O)O
# How the values were obtained:
# [1] = tested on: Staphylococcus aureus (ATCC 6538); test: MIC test, antibacterial activity; assay type: cell-based
# Protocol: (§1) Antibacterial and antifungal activities of the peptides were determined by employing MIC test as follows:
# (§2) To determine antifungal activity, a test organism Candida albicans (ATCC 36232) was cultured on Sabouraud dextrose agar plate for 24 to 48 hrs, and colonies thus grown were suspended on Sabouraud dextrose medium(Gibco, USA) to have O.D.530 =0.5(3×10^6 cells) and further diluted with 100-fold to have O.D.530 =0.005(3×10^4 cells). 100 μl of Candida albicans culture thus prepared was pipetted on 96-well microplates which had already contained 100 μl of a serially diluted peptide solution.
# Antibacterial activity of peptide was determined analogously as above, with an exception that Staphylococcus aureus (ATCC 6538) selected as a test organism was cultured on M-3 medium(Gibco, USA) at 37° C. and cell number was adjusted to 2×10^8 cells before 100-fold dilution.
# [2] = tested on: Candida albicans (ATCC 36232); test: MIC test, antifungal activity; assay type: cell-based
# Protocol: as §1, §2
# [3] = Table 3, addition of an amino acid to N-terminal of TED
# [4] = Table 11, enantiomer, retro-inverso, D-amino acid derivatives of M22
# [5] = Table 2, modification of N-terminal residues of TED
# [6] = Table 1, peptide fragments of Tenecin
# [7] = Table 7, comparison with Ketoconazole (Example 3)
# [8] = Table 4, addition of an amino acid to N-terminal of TEDF
# [9] = Table 8, TEDFK derivatives of group 1
# [10] = Table 6, substitution of Cys in TEDFK with Aib
compound,measurement,setting,value
SYCNGKRVCVCR--NH2 (SYCNGKRVCVCR-NH2; cysteine pairing not given here) [TEDS],MIC S. aureus,[1]; [3],10 µg/mL
same,MIC C. albicans,[2]; [3],50 µg/mL
KKyIKKVFVFK--NH2 [M22-26],MIC S. aureus,[1]; [4],3.16 µg/mL
same,MIC C. albicans,[2]; [4],3.15 µg/mL
GKRVCVCR--NH2 (GKRVCVCR-NH2; cysteine pairing not given here) [TED11],MIC against C. albicans,[2]; [5],> 500 µg/mL
KGKRVCVCR--NH2 (KGKRVCVCR-NH2; cysteine pairing not given here) [TED12],MIC against C. albicans,[2]; [5],> 500 µg/mL
VTCDILSSVEAKGVKL--NH2 (VTCDILSSVEAKGVKL-NH2) [TEC],MIC S. aureus,[1]; [6],> 500 µg/mL
same,MIC C. albicans,[2]; [6],> 100 µg/mL
KFYCNPGPVCVCR--NH2 (KFYCNPGPVCVCR-NH2; cysteine pairing not given here) [TEDFK-9],MIC against C. albicans,"[2]; Table 5, modification of TEDFK",20 µg/mL
same,MIC against C. albicans,[2]; [7],12 µg/mL
YFYCNGKRVCVCR--NH2 (YFYCNGKRVCVCR-NH2; cysteine pairing not given here) [TEDFY],MIC S. aureus,[1]; [8],50 µg/mL
same,MIC C. albicans,[2]; [8],100 µg/mL
PYCNGKRVCVCR--NH2 (PYCNGKRVCVCR-NH2; cysteine pairing not given here) [TEDP],MIC S. aureus,[1]; [3],5 µg/mL
same,MIC C. albicans,[2]; [3],5 µg/mL
KKYIVFVFK--NH2 (KKYIVFVFK-NH2) [M33],MIC against C. albicans,"[2]; Table 10, TEDFK derivatives of group 3",3.12 µg/mL
VTCDILSVEAKGVKLNDAACAAHC-LFRGRSGGYCNGKRVCVCR--CO2 H [Tenecin],MIC S. aureus,[1]; [6],3 µg/mL
same,MIC C. albicans,[2]; [6],> 500 µg/mL
LSVEAKGVKLGGGYCNGKRVCVCR--NH2 (LSVEAKGVKLGGGYCNGKRVCVCR-NH2; cysteine pairing not given here) [TEQ],MIC S. aureus,[1]; [6],> 500 µg/mL
same,MIC C. albicans,[2]; [6],> 100 µg/mL
KFYCNGRVCVCR--NH2 (KFYCNGRVCVCR-NH2; cysteine pairing not given here) [TEDFK-2],MIC against C. albicans,"[2]; Table 5, modification of TEDFK",5 µg/mL
same,MIC against C. albicans,[2]; [7],6 µg/mL
KFYCNKKRVCVCR--NH2 (KFYCNKKRVCVCR-NH2; cysteine pairing not given here) [TEDFK-5],MIC against C. albicans,"[2]; Table 5, modification of TEDFK",5 µg/mL
same,MIC against C. albicans,[2]; [7],3 µg/mL
KKYCNKKCVCK--NH2 [M6] (KKYCNKKCVCK-NH2; cysteine pairing not given here),MIC S. aureus,[1]; [9],3.16 µg/mL
same,MIC C. albicans,[2]; [9],3.12 µg/mL
KFY[Aib]NGKRVCVCR-NH2 (cysteine pairing not given here) [TEDFK-1A],MIC against C. albicans,[2]; [7],2 µg/mL
KFYCNPKRVCVCR--NH2 (KFYCNPKRVCVCR-NH2; cysteine pairing not given here) [TEDFK-3],MIC against C. albicans,"[2]; Table 5, modification of TEDFK",5 µg/mL
same,MIC against C. albicans,[2]; [7],6 µg/mL
KKYIKKVFVFk--NH2 [M22-7],MIC S. aureus,[1]; [4],3.11 µg/mL
same,MIC C. albicans,[2]; [4],3.12 µg/mL
DAACAAHHCLFR--NH2 (DAACAAHHCLFR-NH2; cysteine pairing not given here) [TEA],MIC S. aureus,[1]; [6],> 500 µg/mL
same,MIC C. albicans,[2]; [6],> 100 µg/mL
rcvcvrkgncyfk-NH2 [Retro-inverso of TEDFK],MIC S. aureus,[1]; [4],6.25 µg/mL
same,MIC C. albicans,[2]; [4],6.25 µg/mL
WFYCNGKRVCVCR--NH2 (WFYCNGKRVCVCR-NH2; cysteine pairing not given here) [TEDFW],MIC S. aureus,[1]; [8],1 µg/mL
same,MIC C. albicans,[2]; [8],10 µg/mL
KFYCDGKRVCVCR--NH2 (KFYCDGKRVCVCR-NH2; cysteine pairing not given here) [M18],MIC S. aureus,[1]; [9],12.7 µg/mL
same,MIC C. albicans,[2]; [9],12.5 µg/mL
KYCNGKRVCVCRK--NH2 (KYCNGKRVCVCRK-NH2; cysteine pairing not given here) [M16],MIC S. aureus,[1]; [9],6.35 µg/mL
same,MIC C. albicans,[2]; [9],6.25 µg/mL
KFYCNGKRVCV[Aib]R-NH2 (cysteine pairing not given here) [TEDFK-3A],MIC against C. albicans,[2]; [10],20 µg/mL
same,MIC against C. albicans,[2]; [7],12 µg/mL
FKYCNGKRVCVCR--NH2 (FKYCNGKRVCVCR-NH2; cysteine pairing not given here) [M3],MIC S. aureus,[1]; [9],12.7 µg/mL
same,MIC C. albicans,[2]; [9],12.5 µg/mL
KFYCKGKRVCVCR--NH2 (KFYCKGKRVCVCR-NH2; cysteine pairing not given here) [TEDFK-7],MIC against C. albicans,"[2]; Table 5, modification of TEDFK",3 µg/mL
same,MIC against C. albicans,[2]; [7],3 µg/mL
FPYCNGKRVCVCR--NH2 (FPYCNGKRVCVCR-NH2; cysteine pairing not given here) [TEDFP],MIC S. aureus,[1]; [8],> 500 µg/mL
same,MIC C. albicans,[2]; [8],> 500 µg/mL
KFYCNGKRV[Aib]VCK-NH2 (cysteine pairing not given here) [M25],MIC S. aureus,[1]; [9],6.35 µg/mL
same,MIC C. albicans,[2]; [9],6.25 µg/mL
KFYCVGKRVCVCR--NH2 (KFYCVGKRVCVCR-NH2; cysteine pairing not given here) [TEDFK-6],MIC against C. albicans,"[2]; Table 5, modification of TEDFK",5 µg/mL
same,MIC against C. albicans,[2]; [7],6 µg/mL
KFYCNGKRVCVCW--NH2 (KFYCNGKRVCVCW-NH2; cysteine pairing not given here) [M31],MIC S. aureus,[1]; [9],12.7 µg/mL
same,MIC C. albicans,[2]; [9],12.5 µg/mL
"CC(=O)N1CCN(c2ccc(OCC3COC(Cn4ccnc4)(c4ccc(Cl)cc4Cl)O3)cc2)CC1 (stereo not shown) [Ketoconazole, reference compound]",MIC,"[2]; Candida albicans, ATCC36232, Table 7, comparison with Ketoconazole (Example 3), read-out: MIC against C. albicans",6 µg/mL
SFYCNGKRVCVCR--NH2 (SFYCNGKRVCVCR-NH2; cysteine pairing not given here) [TEDFS],MIC S. aureus,[1]; [8],50 µg/mL
same,MIC C. albicans,[2]; [8],10 µg/mL
KFYCNKRVCVCR--NH2 (KFYCNKRVCVCR-NH2; cysteine pairing not given here) [TEDFK-1],MIC against C. albicans,"[2]; Table 5, modification of TEDFK",5 µg/mL
CNGKRVCVCR--NH2 (CNGKRVCVCR-NH2; cysteine pairing not given here) [TED15],MIC against C. albicans,[2]; [5],> 500 µg/mL
DFYCNGKRVCVCR--NH2 (DFYCNGKRVCVCR-NH2; cysteine pairing not given here) [TEDFD],MIC S. aureus,[1]; [8],> 500 µg/mL
same,MIC C. albicans,[2]; [8],> 500 µg/mL
KYCNGKRVCVCR--NH2 (KYCNGKRVCVCR-NH2; cysteine pairing not given here) [TEDK],MIC S. aureus,[1]; [3],5 µg/mL
same,MIC C. albicans,[2]; [3],5 µg/mL
WFYCNGKRVCVCR--NH2 (WFYCNGKRVCVCR-NH2; cysteine pairing not given here) [M29],MIC S. aureus,[1]; [9],30 µg/mL
same,MIC C. albicans,[2]; [9],25 µg/mL
KKYCNGKRVCVCR--NH2 (KKYCNGKRVCVCR-NH2; cysteine pairing not given here) [M1],MIC S. aureus,[1]; [9],3.16 µg/mL
same,MIC C. albicans,[2]; [9],3.12 µg/mL
LYCNGKRVCVCR--NH2 (LYCNGKRVCVCR-NH2; cysteine pairing not given here) [TEDL],MIC S. aureus,[1]; [3],5 µg/mL
same,MIC C. albicans,[2]; [3],5 µg/mL
KFYCNGKRICICR--NH2 (KFYCNGKRICICR-NH2; cysteine pairing not given here) [M13],MIC S. aureus,[1]; [9],6.35 µg/mL
same,MIC C. albicans,[2]; [9],6.25 µg/mL
KKYIkkVFVFK--NH2 [M22-27],MIC S. aureus,[1]; [4],3.17 µg/mL
same,MIC C. albicans,[2]; [4],3.11 µg/mL
LCNGKRVCVCR--NH2 (LCNGKRVCVCR-NH2; cysteine pairing not given here) [TED17],MIC against C. albicans,[2]; [5],100 µg/mL
KWYCNGKRVCVCR--NH2 (KWYCNGKRVCVCR-NH2; cysteine pairing not given here) [M26],MIC S. aureus,[1]; [9],6.35 µg/mL
same,MIC C. albicans,[2]; [9],6.25 µg/mL
FFYCNGKRVCVCR--NH2 (FFYCNGKRVCVCR-NH2; cysteine pairing not given here) [TEDFF],MIC S. aureus,[1]; [8],5 µg/mL
same,MIC C. albicans,[2]; [8],3 µg/mL
KKYCNKKCVCK--NH2 [M5] (KKYCNKKCVCK-NH2; cysteine pairing not given here),MIC S. aureus,[1]; [9],3.16 µg/mL
same,MIC C. albicans,[2]; [9],3.12 µg/mL
DYCNGKRVCVCR--NH2 (DYCNGKRVCVCR-NH2; cysteine pairing not given here) [TEDD],MIC S. aureus,[1]; [3],10 µg/mL
same,MIC C. albicans,[2]; [3],50 µg/mL
KFYCNGKRVCVCR--NH2 [TEDFK-8] (KFYCNGKRVCVCR-NH2; cysteine pairing not given here),MIC against C. albicans,"[2]; Table 5, modification of TEDFK",5 µg/mL
same,MIC against C. albicans,[2]; [7],6 µg/mL
KFY[Aib]KKVCVCK-NH2 (cysteine pairing not given here) [M8],MIC S. aureus,[1]; [9],3.16 µg/mL
same,MIC C. albicans,[2]; [9],3.12 µg/mL
KCNGKRVCVCR--NH2 (KCNGKRVCVCR-NH2; cysteine pairing not given here) [TED18],MIC against C. albicans,[2]; [5],> 500 µg/mL
KFYCNGKRVCVCD--NH2 (KFYCNGKRVCVCD-NH2; cysteine pairing not given here) [TEDFK-11],MIC against C. albicans,"[2]; Table 5, modification of TEDFK",5 µg/mL
same,MIC against C. albicans,[2]; [7],6 µg/mL
KFYCNGKRVCVCL--NH2 (KFYCNGKRVCVCL-NH2; cysteine pairing not given here) [TEDFK-10],MIC against C. albicans,"[2]; Table 5, modification of TEDFK",5 µg/mL
same,MIC against C. albicans,[2]; [7],6 µg/mL
KFYCNGKRV[Aib]VCR-NH2 (cysteine pairing not given here) [TEDFK-2A],MIC against C. albicans,[2]; [10],5 µg/mL
same,MIC against C. albicans,[2]; [7],6 µg/mL
KFYCNLKRVCVCR--NH2 (KFYCNLKRVCVCR-NH2; cysteine pairing not given here) [TEDFK-4],MIC against C. albicans,"[2]; Table 5, modification of TEDFK",5 µg/mL
